# Test results published in patent US4760065A, “Trifluoromethyl substituted tetracyclic quinazolin-ones having tranquilizing activity” (priority 1986, dated 1988).
# How the values were obtained:
# rats [1] = test: Geller Conflict test (conflict segment); assay type: in vivo; conditions: Rattus norvegicus; for minimal effective dose: conflict segment (number of lickings), read-out: minimum effective dosage in conflict test
# Protocol: Speth et al., Life Science, 22: 859 (1978). Routine and non-substantive modifications of the Flunitrazepam Receptor Binding Assay that are evident from the following description are employed in such evaluation in which non-radioactive candidate compounds are tested for their ability to displace ^3 H-flunitrazepam binding from isolated calf brain benzodiazepine receptors. […] This suspension is made homogenous by homogenation with a Brinkmann Polytron using a rheostate setting of 8 for 10 seconds. Ten λ of ^3 H-flunitrazepam solution is diluted in 0.05M Tris buffer (pH 7.1 at 37° C.) to give a concentration of 10 nM (3.13×10^-6 mg/ml). This solution is stored frozen at -20° C., while the stock ^3 H-flunitrazepam solution in ethanol is kept refrigerated at +2° C. Periodically, the stock ethanolic ^3 H-flunitrazepam solution is examined by TLC for chemical purity. If the purity becomes <90%, the stock solution is repurified or new high purity ^3 H-flunitrazepam is obtained and the impure ^3 H-flunitrazepam discarded. A 0.1 ml portion of 10 nM ^3 H-flunitrazepam "working" solution is added to 12×75 mm borosilicate disposable test tube along with 0.1 ml of freshly prepared 10% ethanol solution. This is the control tube for measuring total binding. Non-specific binding is determined by the addition of 2×10^-5 diazepam (in 10% ethanol) to other tubes in the place of 0.1 ml 10% ethanol. The specific binding is determined in the final results by subtraction of the non-specific binding from the total binding. […] Three mg of each compound are placed in 18×150 mm borosilicate disposable test tubes. […] The ^3 H-flunitrazepam trapped on the filters is counted by liquid scintillation counting on a Beckman LS 8000 after the filters are rapidly shaken for 45 minutes in the scintillation vials with 10 ml of scintillation cocktail. Results of compounds screened are calculated by the on-line data reduction system in the Beckman LS 8000, and are expressed as a percent specifically bound compared to control. […]
# rats [2] = test: Discrimination Test; assay type: in vivo; conditions: Rattus norvegicus, tranquilizing activity
# Text: (§1) While the racemates and individual optical isomers were indicated to have about the same level of activity in FBA tests specifically indicating tranquilizing activity, a marked difference was found between R-and S optical isomers in vivo in tests indicative of sedation. […] On the other hand, in the case of the S-isomer, the doses producing sedation effects were indicated to substantially overlap those at which tranquilizing activity was indicated. For example, in vivo tests in rats. The S-isomer of Example 9 hereinafter was indicated to have tranquilizing (anxiolytic) action in the dose range of about 2 to 15 milligrams per kilograms and mild sedation-related effects in the dose range of about 3-50 milligrams per kilogram. […] In evaluation of the optical isomers in rats to obtain the above indications, the Discrimination Test and the conflict segment (number of lickings) of Geller Conflict Test were used to evaluate tranquilizing activity. […] In the conflict test, the R-isomer was indicated to have a minimum effective dosage of 30 mg/kg. and the S-isomer a minimum effective dosage of 10 mg/kg. […] On the other hand, the S-isomer was indicated to have an ED50 between 40-50 mg/kg. in the Rotarod, Locomotion and Rearing Tests and a low minimum effective dose of 3 mg/kg. in the Sleep Studies.
# [3] = Rotarod, Locomotion and Rearing Tests (indicative of sedation); assay type: in vivo; conditions: rat, locomotion, rearing tests, rats, one value stated for the three tests
# Text: as §1
# rats [4] = test: Sleep studies (sleep/wakefulness studies); assay type: in vivo; conditions: indicative of sedation
# Text: as §1
# rats [5] = test: In vivo tests in rats: dose ranges of tranquilizing action and sedation-related effects; conditions: about; for dose range of sedation-related effects: mild (S-isomer) or weak-to-mild (R-isomer) effects
# Text: as §1
# [6] = target: calf brain benzodiazepine receptors (3H-Flunitrazepam binding, calf brain cortex); test: Flunitrazepam Receptor Binding Assay, Chang et al. modification (FBA TEST No. 2); conditions: read-out: IC50 in FBA test (inhibition of specific binding of 3H-Flunitrazepam)
# Protocol: Substantially similar results are obtainable in a Flunitrazepam Receptor Binding Assay (FBA) as described by Chang et. al., Eur. J. Pharmacol., 48, 213 (1978): when carried out with the non-substantive modifications evident from the following description (hereinafter FBA TEST No. (2): Fresh calf brain cortex is homogenized in a 19 fold volume of Tris-HCl buffer pH 7.4, using a Brinkman Polytron PT 20 and centrifuged at 50'000 g for 10 min. The pellets are frozen at -20° C. and resuspended in a 400 fold volume of Tris-buffer pH 7.4 before use for the binding assay. The assay mixtures consist of 1.8 ml of homogenate (corresponding to 4.5 mg of original tissue), 0.1 ml [^3 H]-Flunitrazepam (final concentration 1.5 nM), and 0.1 ml of buffer for determination of total binding or 0.1 ml of unlabelled Flunitrazepam (final concentration 1 μM) for determination of nonspecific binding, respectively. To assess the potency of various drugs in inhibiting specific binding, drugs are added (instead of buffer) to give 5 to 9 different concentrations between 1 nM and 10 μM, each in duplicate. After incubation for 15 min at 0° C., the assay mixtures are rapidly filtered through Whatman GF/B filters and washed twice with 5 ml of ice cold Tris-buffer. The filters are counted in Rialuma on a LKB Rach-Beta Liquid Scintillation Counter. […]
# [7] = system: monkeys, rats, cats, mice; test: Other standard CNS depressant tests (sleep studies, spinal reflex test, chemically induced convulsions test, Dunham rotarod test, variable interval segment of Geller Conflict test); assay type: in vivo; conditions: at the doses useful as minor tranquilizers, sleep studies in monkeys and rats
Compound,minimal effective dose (rats [1]) [mg/kg],ED50 (rats [2]) [mg/kg],ED50 [3] [mg/kg],minimum effective dose in sleep studies (sleep/wakefulness studies) (rats [4]) [mg/kg],dose range of sedation-related effects (rats [5]),"ED50 (rats [1]; po, P.O.) [mg/kg]",IC50 [6] [nM],activity in other standard CNS depressant tests [7],dose range of tranquilizing (anxiolytic) action (rats [5])
"O=c1c2cc(C(F)(F)F)ccc2nc2n1C[C@@H]1CCCCN21 [Example 8, (+)-10aS-7,8,9,10,10a,11-Hexahydro-2-trifluoromethyl-13H-pyrido[1,'2':3,4]imidazo[2,1b]quinazolin-13-one]",10,2.6,40 to 50,3,3-50 milligrams per kilogram,–,–,–,–
"O=c1c2cc(C(F)(F)F)ccc2nc2n1CC1CCCCN21 (stereo not drawn) [Example 1, Trans(e,e)-( )-2-trifluoromethyl-7,8,9,10,10a,11-Hexahydro-13H-pyrido[1',2':3,4]-imidazo[2,1-b]-quinazolin-13-one]",–,–,–,–,–,15,6.5,only mildly active or essentially inactive,–
"O=c1c2cc(C(F)(F)F)ccc2nc2n1C[C@H]1CCCCN21 [Example 5, (-)-10aR-7,8,9,10,10a,11-hexahydro-2-trifluoromethyl-13H-pyrido[1,'2':3,4]imidazo[2,1b]quinazolin-13-one]",30,4.2,> 120,60,60-120 milligrams per kilogram,–,–,–,4-40 milligrams per kilogram
